# In the supplement of paper PMC10307832:
# Assays:
# Test in all cases: relative viability (nuclei count vs DMSO), 5 days (fraction); higher = more cells survive
# [1] = compound: O=C(C[C@H]1NCCC[C@@H]1O)Cn1cnc2cc(Br)c(Cl)cc2c1=O (racemic) [Halofuginone] + COc1cc2c(Oc3ccc(NC(=O)C4(C(=O)Nc5ccc(F)cc5)CC4)cc3F)ccnc2cc1OCCCN1CCOCC1 [Foretinib] (partner 0.25 µM)
# How it was run: (§1)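 Lung cancer cell lines in 1536-well plates got either a single drug or a fixed anchor-drug dose together with five library-drug doses (not always all listed) in √10 steps, by pin tool, on the day after seeding. Nuclei were counted after 5 days, and relative viability is the treated-to-vehicle ratio of nuclei counts. Values are medians of duplicate plates.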
# [2] = compound: COc1cc2c(Oc3ccc4[nH]c(C)cc4c3F)ncnc2cc1OCCCN1CCCC1 [Cediranib] + CC(=O)c1c(C)c2cnc(Nc3ccc(N4CCNCC4)cn3)nc2n(C2CCCC2)c1=O [Palbociclib] (partner 0.5 µM)
# How it was run: as §1
# [3] = compound: Nc1ncn([C@H]2C[C@H](O)[C@@H](CO)O2)c(=O)n1 [Decitabine] + N=C(N)NC(=N)NCCc1ccccc1 [Phenformin] (partner 250 µM)
# How it was run: as §1
# [4] = compound: O=C(C[C@H]1NCCC[C@@H]1O)Cn1cnc2cc(Br)c(Cl)cc2c1=O (racemic) [Halofuginone] + Nc1nc2[nH]cc(CCc3ccc(C(=O)N[C@@H](CCC(=O)O)C(=O)O)cc3)c2c(=O)[nH]1 [Pemetrexed] (partner 0.2 µM)
# How it was run: as §1
Cell Line,relative viability ([1]; first compound 0.001 µM),relative viability ([1]; first compound 0.003162 µM),relative viability ([1]; first compound 0.01 µM),relative viability ([1]; first compound 0.03162 µM),relative viability ([1]; first compound 0.1 µM),relative viability ([2]; first compound 0.04 µM),relative viability ([2]; first compound 0.4 µM),relative viability ([2]; first compound 1.265 µM),relative viability ([2]; first compound 4 µM),relative viability ([3]; first compound 0.04 µM),relative viability ([3]; first compound 0.1265 µM),relative viability ([3]; first compound 0.4 µM),relative viability ([3]; first compound 1.265 µM),relative viability ([3]; first compound 4 µM),relative viability ([4]; first compound 0.001 µM),relative viability ([4]; first compound 0.003162 µM),relative viability ([4]; first compound 0.01 µM),relative viability ([4]; first compound 0.03162 µM),relative viability ([4]; first compound 0.1 µM),relative viability ([2]; first compound 0.1265 µM)
NCI-H2170,0.987,1,0.968,0.478,1.03,0.438,0.371,0.372,0.381,0.345,0.365,0.291,0.269,0.282,0.271,0.202,0.273,0.25,0.275,–
NCI-H2126,1.28,1.19,1.16,1.17,0.947,0.349,0.359,0.349,0.314,0.478,0.483,0.423,0.451,0.468,0.719,0.655,0.624,0.68,0.571,0.358
HCC-827,1.03,0.974,0.962,1.1,0.947,0.559,0.433,0.629,0.424,0.17,0.288,0.283,0.214,0.289,0.238,0.237,0.266,0.27,0.239,0.54
NCI-H650,1.07,0.966,0.965,1.06,0.885,0.381,0.334,0.34,0.308,0.432,0.408,0.321,0.346,0.291,0.981,0.954,0.946,0.825,0.696,0.321
BEN,0.71,0.815,0.889,0.646,0.242,0.437,0.489,0.451,0.47,0.28,0.261,0.259,0.239,0.245,0.871,0.618,0.788,0.647,0.551,0.412
ChaGo-K-1,0.999,0.915,0.93,0.881,0.786,0.979,0.961,0.996,0.986,0.435,0.413,0.301,0.271,0.336,0.297,0.254,0.251,0.256,0.258,0.922
NCI-H23,1,0.919,0.852,0.991,0.478,0.585,0.547,0.429,0.56,0.579,0.548,0.297,0.242,0.244,0.637,0.582,0.494,0.521,0.495,0.601
NCI-H1975,0.945,1.04,0.796,0.79,0.251,0.62,0.491,0.578,0.547,0.281,0.27,0.214,0.229,0.197,0.281,0.297,0.274,0.263,0.146,0.608
COR-L 105,1.07,0.894,1.31,1.09,0.846,0.413,0.426,0.394,0.414,0.308,0.441,0.383,0.308,0.421,1.09,1.05,0.973,0.981,0.964,0.405
LK-2,1.03,1.42,1.29,0.972,0.875,0.998,0.687,0.764,0.724,0.376,0.522,0.375,0.295,0.244,0.25,0.212,0.294,0.249,0.241,0.693
EKVX,0.806,0.794,0.947,0.794,0.293,0.394,0.326,–,0.316,0.223,0.22,0.227,0.177,0.202,0.42,0.474,0.396,0.409,0.416,0.386
NCI-H2009,1.21,1.23,1.13,1.18,0.775,0.308,0.19,0.0997,0.211,0.433,0.4,0.333,0.282,0.286,1.04,0.999,0.999,0.977,0.548,0.188
NCI-H838,1.18,1.02,1,0.681,0.395,0.229,0.218,0.181,0.214,0.398,0.409,0.247,0.266,0.242,0.266,0.256,0.249,0.189,0.128,0.228
NCI-H2085,0.935,0.937,0.974,1.22,0.59,0.5,0.469,0.473,0.466,0.516,0.51,0.381,0.361,0.394,0.93,0.873,0.872,1.03,0.783,0.48
